Legend:
[1] = test system: high-grade anaplastic astrocytoma that relapsed after surgery and on which the standard therapy failed; assay: Tumor inhibition rate in animal model of high-grade anaplastic astrocytoma; type: in vivo, rats; conditions: for Tumor inhibition rate (%) / Tumor weight: 5th day after drug-withdrawal
Protocol: (§1) 1.1 Cell culture: The pathological tissue for cell culture was a tissue sample removed surgically from high-grade brain tumor that relapsed after surgery and on which the standard therapy failed. Glioblasts cells, high-grade anaplastic astrocytoma cells, high-grade anaplastic oligodendrocytoma cells, high-grade anaplastic oligoastrocytoma cells, and brain tumor cells with unclear pathological types, obtained by separation and culture of pathological tissue, were seeded in DMEM complete culture medium containing 10% FBS and routinely incubated in a 37° C., 5% carbon dioxide incubator under saturated humidity. TMZ was dissolved in DMSO solution, and the mass concentration of the stock solution was 100 mg/mL. Tumor cells in the logarithmic growth phase were diluted to obtain a cell suspension at 1×10^5 cells/mL, and the initial inducer dose 0.25 μg/mL of TMZ was added after routinely culturing for 24 h. The culture was continued for 15-20 days, and after stabilization of cell growth, the induced concentration of the drug was doubled, then the cells were further cultured for 15-20 d at each induced concentration. Thus, the final concentration of TMZ was 16.00 μg/mL, and various pathological types of cell suspensions were obtained.
The cell suspension obtained in step 1 was inoculated into rats in situ, to prepare animal models of high-grade anaplastic astrocytoma that relapsed after surgery and on which the standard therapy failed, and the animals were divided into test groups listed in the following table. […] On the 5th day after drug-withdrawal, the size of the in situ tumor in the rat brain was observed, and the tumor was weighed. The tumor inhibition rate was calculated.

[2] = test system: high-grade glioma relapsed after failure of standard treatment; assay: Clinical trial of chlorogenic acid for injection, effectiveness by RANO standard and survival; type: in vivo, patients
Protocol: A total of 23 subjects completed the test in this trial, including 5 patients with grade III gliomas and 18 patients with grade IV gliomas. […] The subjects included in this trial were all patients with high-grade glioma who relapsed after surgery and didn't response to the standard therapy. The standard treatment was chemotherapy and radiotherapy. […] Ineffective means tumor progression. […] The effectiveness evaluation was performed according to the RANO standard, and the specific RANO standards are as follows: [table] […] A total of 26 subjects were enrolled in the trial, 3 cases were released early, and 23 cases can be counted: […]

[3] = test system: brain tumor with unclear pathological types that relapsed after surgery and on which the standard therapy failed; assay: Tumor inhibition rate in animal model of brain tumors with unclear pathological types; type: in vivo, rats; conditions: for Tumor inhibition rate (%) / Tumor weight: 5th day after drug-withdrawal
Protocol: as §1
The cell suspension obtained in step 1 was inoculated into rats in situ, to prepare animal models of brain tumor with unclear pathological types that relapsed after surgery and on which the standard therapy failed, and the animals were divided into test groups listed in the following table. […] On the 5th day after drug-withdrawal, the size of the in situ tumor in the rat brain was observed, and the tumor was weighed. The tumor inhibition rate was calculated.

[4] = test system: high-grade anaplastic oligoastrocytoma that relapsed after surgery and on which the standard therapy failed; assay: Tumor inhibition rate in animal model of high-grade anaplastic oligoastrocytoma; type: in vivo, rats; conditions: for Tumor inhibition rate (%) / Tumor weight: 5th day after drug-withdrawal
Protocol: as §1
The cell suspension obtained in step 1 was inoculated into rats in situ, to prepare animal models of high-grade anaplastic oligoastrocytoma that relapsed after surgery and on which the standard therapy failed, and the animals were divided into test groups listed in the following table. […] The tumor inhibition rate was calculated.

[5] = test system: high-grade anaplastic oligodendrocytoma that relapsed after surgery and on which the standard therapy failed; assay: Tumor inhibition rate in animal model of high-grade anaplastic oligodendrocytoma; type: in vivo, rats; conditions: for Tumor inhibition rate (%) / Tumor weight: 5th day after drug-withdrawal
Protocol: as §1
The cell suspension obtained in step 1 was inoculated into rats in situ, to prepare animal models of high-grade anaplastic oligodendrocytoma that relapsed after surgery and on which the standard therapy failed, and the animals were divided into test groups listed in the following table. […] The tumor inhibition rate was calculated.

[6] = test system: glioblastoma that relapsed after surgery and on which the standard therapy failed; assay: Tumor inhibition rate in animal model of glioblastoma; type: in vivo, rats; conditions: for Tumor inhibition rate (%) / Tumor weight: 5th day after drug-withdrawal
Protocol: as §1
The cell suspension obtained in step 1 was inoculated into rats in situ, to prepare animal models of glioblastoma that relapsed after surgery and on which the standard therapy failed, and the animals were divided into test groups listed in the following table. […] The tumor inhibition rate was calculated.

[7] = dose 35 mg/kg i.p. daily 10 days

O=C(/C=C/c1ccc(O)c(O)c1)O[C@@H]1C[C@](O)(C(=O)O)C[C@@H](O)[C@H]1O [Chlorogenic acid, chlorogenic acid]
Tumor inhibition rate (%) [1, 7]: 50.2% | Tumor weight [1, 7]: 1.12 ± 0.10 | therapeutic effect in words ([1]; summary of the anaplastic astrocytoma model table): significant inhibitory effect | response rate ([2]; 9 survival subjects with grade IV glioblastoma, 1 cycle): 88.9% | response rate ([2]; nine dead subjects with grade IV glioma, one cycle): 11.1% | Tumor inhibition rate (%) [3, 7]: 44.5% | Tumor weight [3, 7]: 1.21 ± 0.11 | therapeutic effect in words ([3]; summary of the table for brain tumors with unclear pathological types): significant inhibitory effect | Tumor inhibition rate (%) [4, 7]: 47.0% | therapeutic effect in words ([4]; summary of the anaplastic oligoastrocytoma model table): significant inhibitory effect | Tumor inhibition rate (%) [5, 7]: 52.6% | therapeutic effect in words ([5]; summary of the anaplastic oligodendrocytoma model table): significant inhibitory effect | Tumor inhibition rate (%) [6, 7]: 52.2% | therapeutic effect in words ([6]; summary of the glioblastoma model table): significant inhibitory effect

Cn1nnc2c(C(N)=O)ncn2c1=O [temozolomide]
Tumor inhibition rate (%) ([1]; dose 10 mg/kg oral 5 days): 13.3% | Tumor weight ([1]; dose 10 mg/kg oral 5 days): 1.95 ± 0.18 | Tumor inhibition rate (%) ([1]; dose 20 mg/kg oral 5 days): 20.9% | Tumor weight ([1]; dose 20 mg/kg oral 5 days): 1.78 ± 0.11 | Tumor inhibition rate (%) ([3]; dose 10 mg/kg oral 5 days): 16.0% | Tumor weight ([3]; dose 10 mg/kg oral 5 days): 1.83 ± 0.13 | Tumor inhibition rate (%) ([3]; dose 20 mg/kg oral 5 days): 25.7% | Tumor weight ([3]; dose 20 mg/kg oral 5 days): 1.62 ± 0.14 | Tumor inhibition rate (%) ([4]; dose 10 mg/kg oral 5 days): 13.1% | Tumor weight ([4]; dose 10 mg/kg oral 5 days): 1.72 ± 0.14 | Tumor inhibition rate (%) ([4]; dose 20 mg/kg oral 5 days): 20.2% | Tumor weight ([4]; dose 20 mg/kg oral 5 days): 1.58 ± 0.12 | Tumor inhibition rate (%) ([5]; dose 10 mg/kg oral 5 days): 15.5% | Tumor weight ([5]; dose 10 mg/kg oral 5 days): 1.80 ± 0.15 | Tumor inhibition rate (%) ([5]; dose 20 mg/kg oral 5 days): 22.5% | Tumor weight ([5]; dose 20 mg/kg oral 5 days): 1.65 ± 0.14 | Tumor inhibition rate (%) ([6]; dose 10 mg/kg oral 5 days): 14.6% | Tumor weight ([6]; dose 10 mg/kg oral 5 days): 1.75 ± 0.14 | Tumor inhibition rate (%) ([6]; dose 20 mg/kg oral 5 days): 24.1% | Tumor weight ([6]; dose 20 mg/kg oral 5 days): 1.54 ± 0.10
